In patent US20260132140A1, “IMIDAZOLYL-AMINO-PYRAZINE-CARBONITRILS AS CHK-1 INHIBITORS” (BenevolentAI Bio Limited, priority 2022, published 2026):

Experiments:
GBM LN18 cells = assay: In vitro cell viability assay (Cell Titre Glo, 72 hours); assay type: cell-based; details: Homo sapiens, LN-18, read-out: LN18 pIC50 (converted)
Procedure: GBM LN18 cells were incubated with increasing concentrations of selected compounds of the invention for 72 hours prior to the measurement of ATP in metabolically viable cells with the Cell Titre® Glo Luminescent reagent. A 10-point concentration response curve up to a maximum concentration of 10 μM was tested.
The percent (%) effect i.e., inhibition at each concentration of compound was calculated based on, and relative to the amount of inhibition produced in the vehicle control and inhibited control wells contained within each plate.

human Chk1 kinase = target: T1, human Chk1 kinase (Homo sapiens, UniProt O14757); assay: biochemical
T1 sequence (O14757 1-476): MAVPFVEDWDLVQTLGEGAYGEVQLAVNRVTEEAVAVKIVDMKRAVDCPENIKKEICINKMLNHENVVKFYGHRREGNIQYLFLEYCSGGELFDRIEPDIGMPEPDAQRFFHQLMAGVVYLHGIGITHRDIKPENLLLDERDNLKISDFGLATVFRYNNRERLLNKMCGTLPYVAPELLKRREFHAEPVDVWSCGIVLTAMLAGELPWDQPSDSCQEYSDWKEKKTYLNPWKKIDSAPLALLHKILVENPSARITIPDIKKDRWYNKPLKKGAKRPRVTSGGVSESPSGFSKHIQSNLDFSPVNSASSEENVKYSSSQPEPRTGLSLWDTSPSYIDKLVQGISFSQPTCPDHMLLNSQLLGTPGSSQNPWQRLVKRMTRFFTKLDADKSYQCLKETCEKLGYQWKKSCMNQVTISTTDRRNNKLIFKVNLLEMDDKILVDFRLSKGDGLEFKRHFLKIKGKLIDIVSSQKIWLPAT

human Chk2 kinase = human Chk2 kinase (Homo sapiens, UniProt O96017); assay: biochemical
human Chk2 kinase, sequence (O96017 whole entry): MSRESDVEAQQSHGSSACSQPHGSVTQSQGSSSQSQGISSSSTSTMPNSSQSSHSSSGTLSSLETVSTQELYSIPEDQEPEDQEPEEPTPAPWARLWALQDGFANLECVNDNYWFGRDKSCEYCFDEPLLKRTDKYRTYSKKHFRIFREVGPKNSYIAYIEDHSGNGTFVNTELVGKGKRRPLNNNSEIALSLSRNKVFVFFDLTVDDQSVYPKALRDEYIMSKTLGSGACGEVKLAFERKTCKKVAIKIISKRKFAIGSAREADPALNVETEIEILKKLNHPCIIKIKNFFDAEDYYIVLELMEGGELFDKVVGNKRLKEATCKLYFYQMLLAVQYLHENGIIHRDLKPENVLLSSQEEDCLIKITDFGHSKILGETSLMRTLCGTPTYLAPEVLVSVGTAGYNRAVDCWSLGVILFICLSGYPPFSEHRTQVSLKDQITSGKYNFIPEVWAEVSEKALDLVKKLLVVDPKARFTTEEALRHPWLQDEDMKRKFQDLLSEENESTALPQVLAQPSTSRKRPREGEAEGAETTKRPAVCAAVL

Compound	IC50 (human Chk1 kinase) [nM]	IC50 (human Chk2 kinase) [nM]	IC50 (GBM LN18 cells) [nM]
C[C@@H]1C[C@@H](N)CN1c1ccc(-n2cnc(Nc3cnc(C#N)cn3)c2)cc1 [Example 165, 5-((1-(4-((2R,4R)-4-Amino-2-methylpyrrolidin-1-yl)phenyl)-1H-imidazol-4-yl)amino)pyrazine-2-carbonitrile]	< 10	1000 to 10000	< 1000
N#Cc1cnc(Nc2cn(-c3ccc(OCCN)cc3)cn2)cn1 [Example 150, 5-((1-(4-(2-Aminoethoxy)phenyl)-1H-imidazol-4-yl)amino)pyrazine-2-carbonitrile]			1000 to 10000
CCN(C)[C@@H]1CCN(c2ccc(-n3cnc(Nc4cnc(C#N)cn4)c3)cc2)C1 [Example 89, (R)-5-((1-(4-(3-(Ethyl(methyl)amino)pyrrolidin-1-yl)phenyl)-1H-imidazol-4-yl)amino)pyrazine-2-carbonitrile]	< 10	1000 to 10000	< 1000
CN1CC2(CCN(c3ccc(-n4cnc(Nc5cnc(C#N)cn5)c4)cc3)C2)C1 [Example 69, 5-((1-(4-(2-Methyl-2,6-diazaspiro[3.4]octan-6-yl)phenyl)-1H-imidazol-4-yl)amino)pyrazine-2-carbonitrile]	10 to 31.6	10000 to 100000	1000 to 10000
C[C@@H]1CN(c2ccc(-n3cnc(Nc4cnc(C#N)cn4)c3)cc2)C[C@@H]1N(C)C [Example 76, 5-((1-(4-((3R,4R)-3-(Dimethylamino)-4-methylpyrrolidin-1-yl)phenyl)-1H-imidazol-4-yl)amino)pyrazine-2-carbonitrile]	10 to 31.6	10000 to 100000	< 1000
C[C@H]1C[C@@H](N(C)C)CN1c1ccc(-n2cnc(Nc3cnc(C#N)cn3)c2)cc1 [Example 75, 5-((1-(4-((2S,4R)-4-(Dimethylamino)-2-methylpyrrolidin-1-yl)phenyl)-1H-imidazol-4-yl)amino)pyrazine-2-carbonitrile]			< 1000
CCCN1CC(Oc2cccc(-n3cnc(Nc4cnc(C#N)cn4)c3)c2)C1 [Example 48, 5-((1-(3-((1-Propylazetidin-3-yl)oxy)phenyl)-1H-imidazol-4-yl)amino)pyrazine-2-carbonitrile]	31.6 to 100	> 100000	
COc1cc(N2C[C@H]3CCN(C)[C@H]3C2)ccc1-n1cnc(Nc2cnc(C#N)cn2)c1 [Example 55, 5-((1-(2-Methoxy-4-((3aR,6aR)-1-methylhexahydropyrrolo[3,4-b]pyrrol-5(1H)-yl)phenyl)-1H-imidazol-4-yl)amino)pyrazine-2-carbonitrile]	10 to 31.6	10000 to 100000	
COc1cc(OC2CN(C(C)(C)C)C2)ccc1-n1cnc(Nc2cnc(C#N)cn2)c1 [Example 53, 5-((1-(4-((1-(tert-Butyl)azetidin-3-yl)oxy)-2-methoxyphenyl)-1H-imidazol-4-yl)amino)pyrazine-2-carbonitrile]	10 to 31.6	10000 to 100000	
N#Cc1cnc(Nc2cn(-c3ccc(CN4CC[C@@H](F)C4)cc3F)cn2)cn1 [Example 6, (R)-5-((1-(2-Fluoro-4-((3-fluoropyrrolidin-1-yl)methyl)phenyl)-1H-imidazol-4-yl)amino)pyrazine-2-carbonitrile]	100 to 316	> 100000	
CC1CN(C2CCN(c3ccc(-n4cnc(Nc5cnc(C#N)cn5)c4)cc3)C2)C1 (single isomer, unassigned) [Example 125, 5-((1-(4-(3-(3-Methylazetidin-1-yl)pyrrolidin-1-yl)phenyl)-1H-imidazol-4-yl)amino)pyrazine-2-carbonitrile]	10 to 31.6	1000 to 10000	
CCN[C@@H]1CCN(c2ccc(-n3cnc(Nc4cnc(C#N)cn4)c3)cc2)C1 [Example 162, (R)-5-((1-(4-(3-(Ethylamino)pyrrolidin-1-yl)phenyl)-1H-imidazol-4-yl)amino)pyrazine-2-carbonitrile]	< 10	1000 to 10000	
CN(C)[C@@H]1CCN(c2cnc(-n3cnc(Nc4cnc(C#N)cn4)c3)nc2)C1 [Example 82, (R)-5-((1-(5-(3-(Dimethylamino)pyrrolidin-1-yl)pyrimidin-2-yl)-1H-imidazol-4-yl)amino)pyrazine-2-carbonitrile]	31.6 to 100	1000 to 10000	
CN1CCCC12CN(c1cccc(-n3cnc(Nc4cnc(C#N)cn4)c3)c1)C2 [Example 34, 5-((1-(3-(5-Methyl-2,5-diazaspiro[3.4]octan-2-yl)phenyl)-1H-imidazol-4-yl)amino)pyrazine-2-carbonitrile]	10 to 31.6	10000 to 100000	

More lines, main results first:

IC50 (human Chk1 kinase) [nM]	IC50 (human Chk2 kinase) [nM]	Compound	IC50 (GBM LN18 cells) [nM]
10 to 31.6	1000 to 10000	CCN(C)[C@@H]1CCN(c2ccc(-n3cnc(Nc4cnc(C#N)cn4)c3)nc2)C1 [Example 90, (R)-5-((1-(5-(3-(Ethyl(methyl)amino)pyrrolidin-1-yl)pyridin-2-yl)-1H-imidazol-4-yl)amino)pyrazine-2-carbonitrile]	< 1000
100 to 316	10000 to 100000	CN1[C@@H]2COC[C@H]1CN(c1ccc(-n3cnc(Nc4cnc(C#N)cn4)c3)cc1)C2 [Example 177, 5-((1-(4-((1R,5S)-9-Methyl-3-oxa-7,9-diazabicyclo[3.3.1]nonan-7-yl)phenyl)-1H-imidazol-4-yl)amino)pyrazine-2-carbonitrile]	
316 to 1000	> 100000	N#Cc1cnc(Nc2cn(-c3ccc(CN4CC[C@@H](F)C4)c(Cl)c3)cn2)cn1 [Example 2, (R)-5-((1-(3-Chloro-4-((3-fluoropyrrolidin-1-yl)methyl)phenyl)-1H-imidazol-4-yl)amino)pyrazine-2-carbonitrile]	
31.6 to 100	10000 to 100000	N#Cc1cnc(Nc2cn(-c3ccc(CN4CCC(F)CC4)cc3)cn2)cn1 [Example 174, 5-((1-(4-((4-Fluoropiperidin-1-yl)methyl)phenyl)-1H-imidazol-4-yl)amino)pyrazine-2-carbonitrile]	
10 to 31.6	10000 to 100000	CCN1CCC(Nc2ccc(-n3cnc(Nc4cnc(C#N)cn4)c3)c(OC)c2)CC1 [Example 41, 5-((1-(4-((1-Ethylpiperidin-4-yl)amino)-2-methoxyphenyl)-1H-imidazol-4-yl)amino)pyrazine-2-carbonitrile]	
31.6 to 100	> 100000	N#Cc1cnc(Nc2cn(-c3ccc(N4CCN(C5CC(F)(F)C5)CC4)cc3)cn2)cn1 [Example 181, 5-((1-(4-(4-(3,3-Difluorocyclobutyl)piperazin-1-yl)phenyl)-1H-imidazol-4-yl)amino)pyrazine-2-carbonitrile]	
< 10	1000 to 10000	CC1(C)CCN1C1CCN(c2ccc(-n3cnc(Nc4cnc(C#N)cn4)c3)cc2)C1 (single isomer, unassigned) [Example 140, 5-((1-(4-(3-(2,2-Dimethylazetidin-1-yl)pyrrolidin-1-yl)phenyl)-1H-imidazol-4-yl)amino)pyrazine-2-carbonitrile]	
10 to 31.6	> 100000	CN1CCC12CCN(c1ccc(-n3cnc(Nc4cnc(C#N)cn4)c3)cc1)C2 (single isomer, unassigned) [Example 127, 5-((1-(4-(1-Methyl-1,6-diazaspiro[3.4]octan-6-yl)phenyl)-1H-imidazol-4-yl)amino)pyrazine-2-carbonitrile]	
< 10	1000 to 10000	C[C@H]1CCN1C1CCN(c2ccc(-n3cnc(Nc4cnc(C#N)cn4)c3)cc2)C1 (single isomer, unassigned) [Example 138]	
